Test results reported in patent US8507410B2, “Pyridazinone compound and use thereof” (Sumitomo Chemical Company, Limited, priority 2009, dated 2013).

Columns and labels:
[1] = test system: Culex pipiens pallens; experiment: Test Example 2-3: last-instar larvae of Culex pipiens pallens released into dilution; type: in vivo; details: active ingredient concentration 3.5 ppm in water; after 8 days
Protocol: The formulation of the compound of the present invention obtained in Reference Example 3 was diluted with water so that the concentration of the active ingredient became 500 ppm to prepare a test solution. 0.7 mL of the test solution was diluted with ion-exchanged water so that the active ingredient concentration became 3.5 ppm. Into the dilution, 20 last-instar larvae of Culex pipiens pallens were released. After 8 days, the number of dead insects was counted. A death rate was calculated by the following equation, and the effect of the tested compound was evaluated with following insecticidal indexes of 4: death rate of 91-100%, 2: death rate of 11-90%, and 0: death rate of 0-10%. Death rate (%)=(Number of dead insects/Number of tested insects)×100

[2] = test system: Bemisia tabaci; experiment: Test Example 2-7: tomato seedling spray, larvae of Bemisia tabaci; type: in vivo; details: 500 ppm, 10 ml/cup sprayed on tomato seedling; 25° C., 7 days
Protocol: The formulation of the compound of the present invention obtained in Reference Example 4 was diluted with water so that the concentration of the active ingredient became 500 ppm to prepare a test solution. On a tomato seedling at the third true leaf stage placed in a polyethylene cup, imagoes of Bemisia tabaci were released and allowed to lay eggs for about 24 hours. The plant was placed in a greenhouse for 8 days. When larvae of Bemisia tabaci hatched from the eggs, 10 ml/cup of the test solution was sprayed. After the plant was kept at 25° C. for 7 days, the number of the larvae surviving on the tomato leaves was counted, and a controlling value was determined by the following equation. Controlling value (%)={1−(Cb×Tai)/(Cai×Tb)}×100 wherein Cb: the number of insects in a non-treated section before treatment, Cai: the number of insects in a non-treated section on observation, Tb: the number of insects in a treated-section before treatment, Tai: the number of insects in a treated section on observation.

[3] = test system: Frankliniella occidentalis; experiment: Test Example 2-8: sprayed cucumber leaf, larvae of Frankliniella occidentalis; type: in vivo; details: 500 ppm, 10 mL/cup sprayed on cucumber seedling; 25° C., 7 days
Protocol: The formulation of the compound of the present invention obtained in Reference Example 3 was diluted with water so that the concentration of the active ingredient became 500 ppm to prepare a test solution. On a cucumber seedling at the second true leaf stage planted in a polyethylene cup, 10 mL/cup of the test solution was sprayed. After the test solution was dried, the first true […] cut off and then placed in a polyethylene cup. Into the polyethylene cup, 20 larvae of Frankliniella occidentalis were released, and the cup was sealed with a lid. After the cup was kept at 25° C. for 7 days, the number of the insects surviving on the cucumber leaves was counted, and a controlling value was determined by the following equation. Controlling value (%)={1-(Cb×Tai)/(Cai×Tb)}×100 wherein Cb: the number of insects in a non-treated section before treatment, Cai: the number of insects in a non-treated section on observation, Tb: the number of insects in a treated-section before treatment, Tai: the number of insects in a treated section on observation.

[4] = test system: Adoxophyes orana; experiment: Test Example 2-1: artificial diet test on first-instar larvae of Adoxophyes orana; type: in vivo; details: 500 ppm test solution, 1 mL on artificial diet; 25° C., 7 days
Protocol: The formulation of the compound of the present invention obtained in Formulation Example 3 was diluted with water so that the concentration of the active ingredient became 500 ppm to prepare a test solution.
(§1) An artificial diet, Silkmate 2S (Nihon Nosan Kogyo Corp.) was sliced into 2 mm in thickness and then placed on the bottom of a polyethylene cup. Then, 1 mL of the test solution was poured into the polyethylene cup. After air dried, 30 first-instar larvae of Adoxophyes orana were released into the polyethylene cup, and the cup was sealed with a lid. After the polyethylene cup was kept at 25° C. for 7 days, the number of surviving insects was counted. A death rate was calculated by the following equation, and the effect of the tested compound was evaluated with the following insecticidal indexes. Death rate (%)={1−(Number of surviving insects/Number of tested insects)}×100 Insecticidal indexes 4: death rate of 100%, 3: death rate of 80-99%, 2: death rate of 60-79%, 1: death rate of 30-59%, 0: death rate of 0-29%

[5] = test system: Aphis gossypii; experiment: Test Example 2-6: cucumber seedling spray, imagoes of Aphis gossypii; type: in vivo; details: 500 ppm, 10 mL sprayed on cucumber seedling one day after release; counted five days after spraying
Protocol: The formulation of the compound of the present invention obtained in Reference Example 3 was diluted with water so that the concentration of the active ingredient became 500 ppm to prepare a test solution. On a cucumber seedling at the second true leaf stage placed in a polyethylene cup, about 30 imagoes of Aphis gossypii were released. One day after the release of aphids, 10 mL of the test solution was sprayed on the plant. Five days after the spraying treatment, the number of the insects parasitizing the leaves of the plant was counted, and a controlling value was determined by the following equation. Controlling value (%)={1−(Cb×Tai)/(Cai×Tb)}×100 wherein Cb: the number of insects in a non-treated section before treatment, Cai: the number of insects in a non-treated section on observation, Tb: the number of insects in a treated-section before treatment, Tai: the number of insects in a treated section on observation.

[6] = test system: Spodoptera litura; experiment: Test Example 2-2: artificial diet test on fourth-instar larvae of Spodoptera litura; type: in vivo; details: 500 ppm test solution, 1 mL on artificial diet; 25° C., 6 days
Protocol: as §1, with “The formulation of the compound of the present invention obtained in Formulation Example 3 was diluted with water so that the concentration of the active ingredient became 500 ppm to prepare a test solution. An” for “An”, “diet, Insecta LF” for “diet, Silkmate 2S”, “dried, 5 fourth-instar” for “dried, 30 first-instar”, “of Spodoptera litura” for “of Adoxophyes orana”, “for 6” for “for 7”

[7] = test system: Echinochloa crus-galli; experiment: Test Example 1-2: foliar spray, controlling effect on Echinochloa crus-galli; type: in vivo; set-up: key: 0 represents “no effect”; 10 represents “complete death”; a state of the plant therebetween is classified into 1 to 9; details: treatment amount 1,000 g/ha; sprayed at second- to third-leaf stage; visually evaluated after 20 days
Protocol: A plastic cup with a diameter of 8 cm and a depth of 6.5 cm was filled with soil. Seeds of Echinochloa crus-galli were sowed in the cup, and then the plant was grown until the second- to third-leaf stage. Then, a determined amount of a test solution containing the compound of the present invention was sprayed onto the whole plant uniformly. The test solution was prepared by dissolving a predetermined amount of the compound of the present invention in a 2% solution of Tween 20 (polyoxyethylene sorbitan fatty acid ester, MP Biomedicals, Inc.) in dimethylformamide and then diluting the solution with water. After the spray treatment, the plant was grown in a greenhouse. After 20 days, a controlling effect of the compound on Echinochloa crus-galli was visually evaluated. The effect was classified into 11 levels, from 0 to 10 (0 represents “no effect”; 10 represents “complete death”; and a state of the plant therebetween is classified into 1 to 9).
(§2) Compound D was similarly tested as a comparative example.

[8] = test system: Galium aparine; experiment: Test Example 1-3: foliar spray, controlling effect on Galium aparine; type: in vivo; set-up: key: 0 represents “no effect”; 10 represents “complete death”; a state of the plant therebetween is classified into 1 to 9; details: treatment amount 250 g/ha; sprayed at second- to third-leaf stage; visually evaluated after 20 days
Protocol: A plastic cup with a diameter of 8 cm and a depth of 6.5 cm was filled with soil. Seeds of Galium aparine were sowed in the cup, and then the plant was grown until the second- to third-leaf stage. Then, a determined amount of a test solution containing the compound of the present invention was sprayed onto the whole plant uniformly. The test solution was prepared by dissolving a predetermined amount of the compound of the present invention in a 2% solution of Tween 20 (polyoxyethylene sorbitan fatty acid ester, MP Biomedicals, Inc.) in dimethylformamide and then diluting the solution with water. After the spray treatment, the plant was grown in a greenhouse. After 20 days, a controlling effect of the compound on Galium aparine was visually evaluated. The effect was classified into 11 levels, from 0 to 10 (0 represents “no effect”; 10 represents “complete death”; and a state of the plant therebetween is classified into 1 to 9).
as §2

[9] = test system: Lolium multiflorum; experiment: Test Example 1-1: foliar spray, controlling effect on Lolium multiflorum; type: in vivo; set-up: key: 0 represents “no effect”; 10 represents “complete death”; a state of the plant therebetween is classified into 1 to 9; details: treatment amount 250 g/ha; sprayed at first to second leaf stage; visually evaluated after 20 days
Protocol: A plastic cup with a diameter of 8 cm and a depth of 6.5 cm was filled with soil. Seeds of Lolium multiflorum were sowed in the cup, and then the plant was grown until the first to second leaf stage. Then, a determined amount of a test solution containing the compound of the present invention was sprayed onto the whole plant uniformly. The test solution was prepared by dissolving a predetermined amount of the compound of the present invention in a 2% solution of Tween 20 (polyoxyethylene sorbitan fatty acid ester, MP Biomedicals, Inc.) in dimethylformamide and then, diluting the solution with water. After the spray treatment, the plant was grown in a greenhouse. After 20 days, a controlling effect of the compound on Lolium multiflorum was visually evaluated. The effect was classified into 11 levels, from 0 to 10 (0 represents “no effect”; 10 represents “complete death”; and a state of the plant therebetween is classified into 1 to 9).
Compound D as shown below was similarly tested as a comparative example.

SMILES: COCOc1c(C)nn(C)c(=O)c1-c1cc(-c2ccc(Cl)cc2)ccc1C [I-1-6]
- insecticidal index (death rate) [1]: 4 (death rate of 91-100%)
- controlling value [2]: ≥ 90%
- controlling value [3]: ≥ 90%
- insecticidal index (death rate) [4]: 4 (death rate of 100%)
- controlling value [5]: ≥ 90%
- insecticidal index (death rate) [6]: 3 (death rate of 80-99%)

SMILES: CCc1cc(CC)c(-c2c(OCS(C)(=O)=O)c(C)nn(C)c2=O)c(CC)c1 [I-4-1, 2,6-dimethyl-5-methylsulfonylmethoxy-4-(2,4,6-triethylphenyl)-3(2H)-pyridazinone]
- melting point: 142 to 143 °C

SMILES: CCc1cc(C)cc(CC)c1-c1c(OC)c(C)nn(C)c1=O [Compound D]
- controlling effect on Echinochloa crus-galli (11 levels, 0 to 10) [7]: 0
- controlling effect on Galium aparine (11 levels, 0 to 10) [8]: 0
- controlling effect on Lolium multiflorum (11 levels, 0 to 10) [9]: 0
